How the values were obtained:
[1] = target: T1, Glucocorticoid Receptor (GR) (Homo sapiens, UniProt P04150); experiment: Transactivation assay (MMTV-Luc reporter in HeLa cells); type: cell-based; settings: comparison table; against maximal activation seen with dexamethasone
T1 construct: Cells were transfected the next day with MMTV-Luc (5 μg) and pGL4-hRLuc (0.1 μg); endogenous in cells; host or cells: HeLa
T1 sequence (P04150 1-777): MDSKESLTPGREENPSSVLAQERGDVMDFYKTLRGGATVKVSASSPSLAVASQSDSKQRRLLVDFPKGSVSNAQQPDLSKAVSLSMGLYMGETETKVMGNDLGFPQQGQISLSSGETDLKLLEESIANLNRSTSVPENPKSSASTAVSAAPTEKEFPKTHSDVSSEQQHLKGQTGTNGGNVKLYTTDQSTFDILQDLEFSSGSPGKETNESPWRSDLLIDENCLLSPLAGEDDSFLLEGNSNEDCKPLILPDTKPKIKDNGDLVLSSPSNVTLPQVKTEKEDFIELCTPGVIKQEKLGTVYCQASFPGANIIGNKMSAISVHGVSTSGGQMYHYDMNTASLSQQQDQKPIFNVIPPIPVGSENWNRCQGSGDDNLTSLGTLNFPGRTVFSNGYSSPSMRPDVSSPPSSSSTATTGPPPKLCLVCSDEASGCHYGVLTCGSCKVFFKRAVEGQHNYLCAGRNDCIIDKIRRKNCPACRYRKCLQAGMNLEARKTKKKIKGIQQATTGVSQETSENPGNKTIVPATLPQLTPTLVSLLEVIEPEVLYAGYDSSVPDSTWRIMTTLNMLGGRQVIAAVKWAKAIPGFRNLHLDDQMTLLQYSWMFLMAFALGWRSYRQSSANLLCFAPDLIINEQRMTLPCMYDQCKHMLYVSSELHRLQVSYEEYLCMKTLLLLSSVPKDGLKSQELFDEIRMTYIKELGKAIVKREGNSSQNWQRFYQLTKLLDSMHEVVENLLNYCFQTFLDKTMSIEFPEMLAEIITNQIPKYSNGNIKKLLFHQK

[2] = system: osteoblast activity; experiment: Rat bone formation assay, serum osteocalcin; type: in vivo; settings: daily oral, terminal (35 day) plasma, FIG. 9
Text: For the analysis of bone metabolism, and its regulation by orally administered GC, a rat bone formation assay was used.
Terminal (35 day) plasma was harvested, and osteocalcin measured, as an integrated measure of osteoblast activity across the skeleton.

[3] = system: endosteal bone formation; experiment: Rat endosteal bone increment; type: in vivo; settings: daily oral dose, FIG. 10
Text: However, osteoblast activity is not uniform across the skeleton, which may result in either over, or under estimation of the steroid effect. In young, growing, rats long bone remodelling during bone growth offers an attractive model to study active bone formation as the endosteal surface has new bone formation as the diameter of the shaft decreases due to endosteal bone formation, and periosteal bone resorption. As shown in FIG. 11 (CT reconstruction) as long bones grow the diameter of the shaft at the growing end (20% mark) is greater than that towards the middle of the bone (30% and 40% marks) due to loss of bone at the outer surface, or periosteal surface, and deposition of bone, due to osteoblast action, on the inner surface, or endosteal surface.
In contrast, there was no effect of Dex124 seen until 100 mg/Kg, giving an estimated IC50 of approximately 90 mg/Kg.

[4] = system: NFkB; experiment: Transrepression assay (NFκB-LUC reporter in HeLa cells, TNF stimulated); type: cell-based; settings: comparison table
[5] = target: T2, mineralocorticoid receptor (MR) (Homo sapiens, UniProt P08235); experiment: Steroid receptor cross-reactivity, mineralocorticoid receptor; type: cell-based; settings: FIG. 3
T2 sequence (P08235 1-984): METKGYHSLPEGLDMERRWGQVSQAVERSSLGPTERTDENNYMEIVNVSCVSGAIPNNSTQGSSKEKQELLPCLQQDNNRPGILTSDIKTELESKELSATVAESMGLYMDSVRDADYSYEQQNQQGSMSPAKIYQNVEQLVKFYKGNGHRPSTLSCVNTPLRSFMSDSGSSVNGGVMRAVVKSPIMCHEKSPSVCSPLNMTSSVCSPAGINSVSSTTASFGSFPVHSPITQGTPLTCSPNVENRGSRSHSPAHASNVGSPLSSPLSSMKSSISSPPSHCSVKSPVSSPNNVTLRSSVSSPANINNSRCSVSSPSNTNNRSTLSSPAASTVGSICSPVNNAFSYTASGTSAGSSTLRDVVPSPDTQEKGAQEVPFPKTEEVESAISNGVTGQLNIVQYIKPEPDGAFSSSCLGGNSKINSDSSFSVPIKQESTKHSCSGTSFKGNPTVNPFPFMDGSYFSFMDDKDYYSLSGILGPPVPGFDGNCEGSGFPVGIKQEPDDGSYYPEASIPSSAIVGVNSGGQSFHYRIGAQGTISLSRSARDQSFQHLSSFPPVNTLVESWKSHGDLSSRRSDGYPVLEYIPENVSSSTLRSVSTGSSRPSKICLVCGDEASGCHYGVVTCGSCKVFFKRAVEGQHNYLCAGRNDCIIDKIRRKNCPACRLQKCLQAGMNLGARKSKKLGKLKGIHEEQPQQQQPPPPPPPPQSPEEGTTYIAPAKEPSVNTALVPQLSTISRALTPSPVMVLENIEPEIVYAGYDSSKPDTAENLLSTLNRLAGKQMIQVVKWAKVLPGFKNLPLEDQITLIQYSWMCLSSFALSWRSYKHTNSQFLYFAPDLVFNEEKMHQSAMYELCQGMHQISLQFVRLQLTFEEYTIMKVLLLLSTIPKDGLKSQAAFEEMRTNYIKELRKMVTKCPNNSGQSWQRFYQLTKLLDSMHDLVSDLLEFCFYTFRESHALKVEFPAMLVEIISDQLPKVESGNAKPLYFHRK
Text: There is a high degree of structural similarity between the various human steroid receptors. Ligands may therefore cross-react with other members of the steroid receptor family. In particular progesterone receptor and mineralocorticoid receptor show the highest structural similarity.

[6] = system: rat adjuvant arthritis; experiment: Established rat adjuvant arthritis; type: in vivo; settings: increasing doses, FIG. 7
Text: Established rat arthritis was chosen as the most relevant predictive model for chronic inflammatory arthritis in man. The disease is initiated with a caudal injection of complete Freund's adjuvant and the disease is established after 14 days. Anti-inflammatory molecules are given orally, usually once a day and after 7 days the animals are sacrificed. Paw volumes are the primary measurement and as a secondary measure inflammatory lesions are scored at a number of sites. At autopsy adrenal, spleen and thymus weights are recorded.
The arthritis score for the rats was used in these studies, as the inflammatory disease consists of both destructive inflammatory arthritis, but also systemic manifestations.
This analysis uses the area under the curve of arthritis score over the course of the experiment to yield a single, integrated measure for each experimental animal. The area under the curve of the vehicle treated animal is indicated on the graph for comparison purposes, but marked at an arbitrary log dose.

TA % [1]: 68%
IC50 for decrease in bone increment [3]: 7.8 mg/kg
IC50 ([4]; Homo sapiens, HeLa, half-maximal repression of NFkB, multiple experiments, read-out: IC50): 0.0129 µM
activity on mineralocorticoid receptor [5]: significant activity
SMILES: C[C@]12C=CC(=O)C=C1CC[C@@H]1[C@@H]2[C@@H](O)C[C@@]2(C)[C@H]1CC[C@]2(O)C(=O)CO [Pred, prednisolone]
osteocalcin concentration [2]: dose-dependent inhibition of osteocalcin concentration
TR % ([4]; maximal NFkB repression compared to Dexamethasone): 99%
arthritis clinical score (AUC) [6]: inhibit arthritis clinical score

From patent US20170044208A1, “SELECTIVE GLUCOCORTICOID RECEPTOR LIGANDS” (The University of Manchester, priority 2013, published 2017)
